Results on two compounds are retold here after patent publication US20080032961A1, “Therapy employing LXRalpha modolators” (priority 2001, published 2008).

Common to all, as to assay type: cell-based
The subject of one assay is 3T3-L1 cells. Put plainly: Oil Red O staining of lipid droplet accumulation / adipocyte differentiation of 3T3-L1 cells. As to conditions: for lipid droplets (Oil Red-O staining): 3T3-L1 cells committed to adipocyte differentiation. As to the method: (§1) 3T3-L1 cells committed to adipocyte differentiation were treated with either Darglitazone, the LXRα agonist 22-R-hydroxy cholesterol, or both. 22-R-hydroxy cholesterol (22-R) is a naturally occurring agonist for LXRα (Janowski et al. 1996). […] Therefore, treatment of 3T3-L1 pre-adipocytes with either a PPARγ agonist or an LXRα agonist leads to fat accumulation and increased expression of LXRα.
(§2) The 3T3-L1 cell line (ATCC) was maintained in DMEM supplemented with 10% fetal calf serum, 2 mM L-glutamine and penicillin/streptomycin at 37° C. Cells were grown to confluence and exposed to adipogenic reagents for 3 days, followed by culturing for 3 more days in medium containing insulin only as described elsewhere (Lin and Lane, 1992). Insulin was used at a concentration of 1 μg/ml, dexamethasone at 1 μM and isobutylmethylxanthine at 0.5 mM.
Light microscopy and Oil Red O staining were used to monitor the characteristic cell rounding and lipid droplet accumulation in these cells during differentiation. Images were taken using a microscope (Leica DMIL) and a dual-colour charge coupled device camera (Leica MPS 60).

For assay [1], the system named is LXRα mRNA in 3T3-L1 adipocytes. Put plainly: Northern blot analysis of LXRα mRNA in 3T3-L1 adipocytes. Particulars: for LXRα mRNA (Northern blot of total RNA): differentiating 3T3-L1 cells, 22-R 5 μM, Darglitazone 1 μM, alone or in combination, 24 hours, FIG. 2. The protocol:
We performed Northern blot analysis on total RNA from 3T3-L1 adipocytes treated with increasing doses of a PPARγ agonist. Adipocytes treated over a 24 hrs period with […] of Darglitazone. 20 μg total RNA was subjected to Northern blotting and probed with a ^32P-labeled LXRα cDNA probe. The signal was obtained by scanning the autoradiogram and normalised for 18S RNA expression. […] These concentrations are in agreement with concentrations required for activation of PPARγ in reporter assays (Lehmann et al. 1995).
as §1, §2
(§3) Total RNA from differentiated 3T3-L1 adipocytes or adipose tissue were extracted by the Trizol (Life Technologies, Inc.) method as recommended by the manufacturer. Northern blot analysis of RNA was performed as described earlier (Sorensen et al., 1994). 20 μg of total RNA was analyzed for LXRα and ribosomal protein 18S mRNA.

The subject of assay [2] is LXRα mRNA in human adipocytes. The assay can be described thus: Northern blot analysis of LXRα mRNA in human adipocytes. Particulars: 1 μM Darglitazone, 5 μM 22-(R)-hydroxy cholesterol or both, 48 hrs, FIG. 3. As to the method: Human adipocytes were obtained from breast reduction surgery. Pieces of adipose tissue (5-600 mg) were prepared under sterile conditions and used for incubations in plastic tubes essentially as described (Ottosson et al., 1994). PolyA+ RNA was isolated and subjected to Northern blot analysis (FIG. 3).
as §3

Regarding `CC(C)CC[C@@H](O)[C@@H](C)[C@H]1CC[C@H]2[C@@H]3CC=C4C[C@@H](O)CC[C@]4(C)[C@H]3CC[C@]12C` [22-R-hydroxy cholesterol], the “lipid droplets (Oil Red-O staining)” value in the assay on 3T3-L1 cells is “gradually larger lipid droplets”. The “adipocyte differentiation of 3T3-L1 pre-adipocytes” value in the assay with 3T3-L1 cells (3T3-L1 pre-adipocytes) is given as “enhances adipocyte differentiation”. Also, the “LXRα mRNA (Northern blot of total RNA)” value in assay [1] is reported as “increase”. In addition, the “expression levels of LXRα mRNA (Northern blot of PolyA+ RNA)” value in assay [2] is “increased expression levels”.
For the compound `Cc1oc(-c2ccccc2)nc1CCC(=O)c1ccc(CC2SC(=O)NC2=O)cc1` (centres unmarked) [Darglitazone], the “lipid droplets (Oil Red-O staining)” value in the assay on 3T3-L1 cells was “gradually larger lipid droplets”. Besides, in assay [1] (3T3-L1 adipocytes, 24 hrs, 0.01, 0.1, and 1 mM, normalised for 18S RNA, FIG. 1), the “induction of LXRa mRNA” value was “approximately 5 fold”. In assay [1], the “LXRα mRNA (Northern blot of total RNA)” value is reported as “increase”. In addition, the “expression levels of LXRα mRNA (Northern blot of PolyA+ RNA)” value in assay [2] is listed as “increased expression levels”.
